Measurements reported in ChEMBL document CHEMBL4033734, “Synthesis of 3- and 29-substituted celastrol derivatives and structure-activity relationship studies of their cytotoxic activities” (Bioorg Med Chem Lett, 2017).

Key:
[1] = tested on: HepG2; experiment: Cytotoxic activity against human HepG2 cells incubated for 48 hrs by MTT assay; assay type: functional, cell-based; settings: HepG2, 48 h
[2] = tested on: A549; experiment: Cytotoxic activity against human A549 cells incubated for 48 hrs by MTT assay; assay type: functional, cell-based; settings: A549, 48 h
[3] = tested on: SGC-7901; experiment: Cytotoxic activity against human SGC7901 cells incubated for 48 hrs by MTT assay; assay type: functional, cell-based; settings: SGC-7901, 48 h
[4] = tested on: HeLa; experiment: Cytotoxic activity against human HeLa cells incubated for 48 hrs by MTT assay; assay type: functional, cell-based
[5] = tested on: Bel-7402; experiment: Cytotoxic activity against human Bel7402 cells incubated for 48 hrs by MTT assay; assay type: functional, cell-based; settings: Bel-7402, 48 h
[6] = tested on: Mus musculus; experiment: Toxicity in nude mouse xenografted with human A549 cells assessed as change in body weight at 3 mg/kg, ig dosed every day (reference value: 26.8 g); assay type: organism-based; settings: in vivo, po
[7] = tested on: Mus musculus; experiment: Toxicity in nude mouse xenografted with human A549 cells assessed as change in body weight at 12 mg/kg, ig dosed every day (reference value: 25.8 g); assay type: organism-based; settings: in vivo, po
[8] = tested on: A549; experiment: Antitumor activity against human A549 cells xenografted in nude mouse assessed as relative tumor volume at 6 mg/kg, ig dosed every day relative to initial tumor volume; assay type: functional
[9] = tested on: A549; experiment: Antitumor activity against human A549 cells xenografted in nude mouse assessed as tumor growth inhibition at 6 mg/kg, ig dosed every day; assay type: functional; settings: A549, po, read-out: TGI
[10] = tested on: A549; experiment: Antitumor activity against human A549 cells xenografted in nude mouse assessed as tumor growth inhibition at 3 mg/kg, ig dosed every day; assay type: functional; settings: A549, po, read-out: TGI
[11] = tested on: A549; experiment: Antitumor activity against human A549 cells xenografted in nude mouse assessed as relative tumor volume at 12 mg/kg, ig dosed every day relative to initial tumor volume; assay type: functional
[12] = tested on: Mus musculus; experiment: Toxicity in nude mouse xenografted with human A549 cells assessed as induction of mouse fatality at 6 mg/kg, ig dosed every day; assay type: organism-based; settings: in vivo, po
[13] = tested on: A549; experiment: Antitumor activity against human A549 cells xenografted in nude mouse assessed as tumor growth inhibition at 3 to 12 mg/kg, ig dosed every day; assay type: functional, organism-based
[14] = tested on: Mus musculus; experiment: Toxicity in nude mouse xenografted with human A549 cells assessed as change in body weight at 6 mg/kg, ig dosed every day (reference value: 25.9 g); assay type: organism-based; settings: in vivo, po
[15] = tested on: A549; experiment: Antitumor activity against human A549 cells xenografted in nude mouse assessed as tumor growth inhibition at 12 mg/kg, ig dosed every day; assay type: functional; settings: A549, po, read-out: TGI
[16] = tested on: Mus musculus; experiment: Toxicity in nude mouse xenografted with human A549 cells assessed as induction of mouse fatality at 3 mg/kg, ig dosed every day; assay type: organism-based; settings: in vivo, po
[17] = tested on: Mus musculus; experiment: Toxicity in nude mouse xenografted with human A549 cells assessed as induction of mouse fatality at 12 mg/kg, ig dosed every day; assay type: organism-based; settings: in vivo, po
[18] = tested on: A549; experiment: Antitumor activity against human A549 cells xenografted in nude mouse assessed as relative tumor volume at 3 mg/kg, ig dosed every day relative to initial tumor volume; assay type: functional
[19] = tested on: Mus musculus; experiment: Toxicity in ip dosed nude mouse assessed as induction of mouse fatality; assay type: organism-based; settings: in vivo
[20] = tested on: Mus musculus; experiment: Toxicity in nude mouse xenografted with human A549 cells assessed as change in body weight at 12 mg/kg, ig dosed every day (reference value: 26.5 g); assay type: organism-based; settings: in vivo, po

Compound	IC50 [1]	IC50 [2]	IC50 [3]	IC50 [4]	IC50 [5]	also measured
CC1=C(O)C(=O)C=C2C1=CC=C1[C@@]2(C)CC[C@@]2(C)[C@@H]3C[C@](C)(C(=O)OCc4ccccc4)CC[C@]3(C)CC[C@]12C	0.8 µM	2.33 µM	0.31 µM	0.46 µM	0.2 µM	–
CC1=C(O)C(=O)C=C2C1=CC=C1[C@@]2(C)CC[C@@]2(C)[C@@H]3C[C@](C)(C(=O)OCc4ccc(C)cc4)CC[C@]3(C)CC[C@]12C	0.43 µM	3.12 µM	0.7 µM	1.05 µM	0.63 µM	–
CC1=C(O)C(=O)C=C2C1=CC=C1[C@@]2(C)CC[C@@]2(C)[C@@H]3C[C@](C)(C(=O)OCc4ccc(Br)cc4)CC[C@]3(C)CC[C@]12C	0.66 µM	3.07 µM	0.81 µM	0.87 µM	0.52 µM	–
CCCCCOC(=O)[C@]1(C)CC[C@]2(C)CC[C@]3(C)C4=CC=C5C(=CC(=O)C(O)=C5C)[C@]4(C)CC[C@@]3(C)[C@@H]2C1	0.44 µM	2.3 µM	0.46 µM	0.56 µM	0.81 µM	–
CC1=C(OC(=O)N2CCCCC2C)C(=O)C=C2C1=CC=C1[C@@]2(C)CC[C@@]2(C)[C@@H]3C[C@](C)(C(=O)OCc4ccccc4)CC[C@]3(C)CC[C@]12C (stereo partly drawn)	8.19 µM	15 µM	4.73 µM	4.27 µM	5.05 µM	–
CCC(C)OC(=O)[C@]1(C)CC[C@]2(C)CC[C@]3(C)C4=CC=C5C(=CC(=O)C(O)=C5C)[C@]4(C)CC[C@@]3(C)[C@@H]2C1 (stereo partly drawn)	0.39 µM	1.93 µM	0.36 µM	0.36 µM	0.59 µM	–
C=CCOC(=O)[C@]1(C)CC[C@]2(C)CC[C@]3(C)C4=CC=C5C(=CC(=O)C(O)=C5C)[C@]4(C)CC[C@@]3(C)[C@@H]2C1	0.31 µM	1.49 µM	0.33 µM	0.31 µM	0.63 µM	–
CC1=C(O)C(=O)C=C2C1=CC=C1[C@@]2(C)CC[C@@]2(C)[C@@H]3C[C@](C)(C(=O)OCC(C)C)CC[C@]3(C)CC[C@]12C	0.34 µM	1.07 µM	0.24 µM	0.41 µM	0.53 µM	–
CC1=C(O)C(=O)C=C2C1=CC=C1[C@@]2(C)CC[C@@]2(C)[C@@H]3C[C@](C)(C(=O)OC(C)C)CC[C@]3(C)CC[C@]12C	0.32 µM	3.41 µM	0.47 µM	1.75 µM	0.43 µM	–
CCCCCCOC(=O)[C@]1(C)CC[C@]2(C)CC[C@]3(C)C4=CC=C5C(=CC(=O)C(O)=C5C)[C@]4(C)CC[C@@]3(C)[C@@H]2C1	1.74 µM	9.31 µM	1.58 µM	1.84 µM	2.21 µM	–
COC(=O)[C@]1(C)CC[C@]2(C)CC[C@]3(C)C4=CC=C5C(=CC(=O)C(O)=C5C)[C@]4(C)CC[C@@]3(C)[C@@H]2C1 [PRISTIMERIN]	0.78 µM	1.03 µM	0.63 µM	0.32 µM	1.16 µM	–
CC1=C(OC(=O)N2CCOCC2)C(=O)C=C2C1=CC=C1[C@@]2(C)CC[C@@]2(C)[C@@H]3C[C@](C)(C(=O)OCc4ccccc4)CC[C@]3(C)CC[C@]12C	1.36 µM	9.35 µM	1.78 µM	1.55 µM	1.56 µM	–
CCOC(=O)COC(=O)[C@]1(C)CC[C@]2(C)CC[C@]3(C)C4=CC=C5C(=CC(=O)C(O)=C5C)[C@]4(C)CC[C@@]3(C)[C@@H]2C1	0.76 µM	3.89 µM	0.67 µM	0.61 µM	0.3 µM	–
CC1=C(OC(=O)N2CCN(Cc3ccccc3)CC2)C(=O)C=C2C1=CC=C1[C@@]2(C)CC[C@@]2(C)[C@@H]3C[C@](C)(C(=O)OCc4ccccc4)CC[C@]3(C)CC[C@]12C	9.9 µM	8.85 µM	11.7 µM	18 µM	5.17 µM	–
CC(=O)N1CCN(C(=O)OC2=C(C)C3=CC=C4[C@@](C)(CC[C@@]5(C)[C@@H]6C[C@](C)(C(=O)OCc7ccccc7)CC[C@]6(C)CC[C@]45C)C3=CC2=O)CC1	5.79 µM	7.2 µM	3.64 µM	1.35 µM	4.23 µM	–
CC1=C(OC(=O)N2CCN(C)CC2)C(=O)C=C2C1=CC=C1[C@@]2(C)CC[C@@]2(C)[C@@H]3C[C@](C)(C(=O)OCc4ccccc4)CC[C@]3(C)CC[C@]12C	2.61 µM	5.18 µM	1.28 µM	2.31 µM	1.02 µM	Activity [6]: 26.5 g; Activity [7]: 26.9 g; fold change (FC) [8]: 0.63; inhibition in vivo at 6 mg/kg [9]: 57.5%; inhibition in vivo at 3 mg/kg [10]: 46.1%; fold change (FC) [11]: 0.55; Activity [12]: Non-Toxic; TGI [13]: Dose-dependent effect; Activity [14]: 27 g; inhibition in vivo at 12 mg/kg [15]: 71%; Activity [16]: Non-Toxic; Activity [17]: Non-Toxic; fold change (FC) [18]: 0.76
CC1=C(O)C(=O)C=C2C1=CC=C1[C@@]2(C)CC[C@@]2(C)[C@@H]3C[C@](C)(C(=O)OCc4ccc([N+](=O)[O-])cc4)CC[C@]3(C)CC[C@]12C	0.44 µM	2.01 µM	0.51 µM	0.41 µM	0.24 µM	–
CC1=C(OC(=O)N(C)c2ccccc2)C(=O)C=C2C1=CC=C1[C@@]2(C)CC[C@@]2(C)[C@@H]3C[C@](C)(C(=O)OCc4ccccc4)CC[C@]3(C)CC[C@]12C	4.25 µM	14.8 µM	4.31 µM	6.36 µM	4.07 µM	–
CCN1CCN(C(=O)OC2=C(C)C3=CC=C4[C@@](C)(CC[C@@]5(C)[C@@H]6C[C@](C)(C(=O)OCc7ccccc7)CC[C@]6(C)CC[C@]45C)C3=CC2=O)CC1	4.61 µM	5.91 µM	2.88 µM	1.59 µM	2.44 µM	–
CCCOC(=O)[C@]1(C)CC[C@]2(C)CC[C@]3(C)C4=CC=C5C(=CC(=O)C(O)=C5C)[C@]4(C)CC[C@@]3(C)[C@@H]2C1	0.28 µM	2.15 µM	0.47 µM	1.38 µM	0.41 µM	–
CCOC(=O)[C@]1(C)CC[C@]2(C)CC[C@]3(C)C4=CC=C5C(=CC(=O)C(O)=C5C)[C@]4(C)CC[C@@]3(C)[C@@H]2C1	0.49 µM	1.44 µM	0.24 µM	0.83 µM	0.92 µM	–
CC1=C(OC(=O)N2CCCCC2)C(=O)C=C2C1=CC=C1[C@@]2(C)CC[C@@]2(C)[C@@H]3C[C@](C)(C(=O)OCc4ccccc4)CC[C@]3(C)CC[C@]12C	7.43 µM	12.1 µM	3.04 µM	2.82 µM	3.22 µM	–
CC1=C(O)C(=O)C=C2C1=CC=C1[C@@]2(C)CC[C@@]2(C)[C@@H]3C[C@](C)(C(=O)OCOCc4ccccc4)CC[C@]3(C)CC[C@]12C	0.37 µM	3.78 µM	0.3 µM	1.12 µM	0.51 µM	–
CCCCOC(=O)[C@]1(C)CC[C@]2(C)CC[C@]3(C)C4=CC=C5C(=CC(=O)C(O)=C5C)[C@]4(C)CC[C@@]3(C)[C@@H]2C1	1.05 µM	1.36 µM	0.73 µM	0.79 µM	1.01 µM	–
CC1=C(O)C(=O)C=C2C1=CC=C1[C@@]2(C)CC[C@@]2(C)[C@@H]3C[C@](C)(C(=O)O)CC[C@]3(C)CC[C@]12C [CELASTROL]	0.58 µM	2.12 µM	0.87 µM	0.84 µM	0.44 µM	Activity [19]: Toxic; Activity [20]: 25.5 g; fold change (FC) [11]: 0.84; inhibition in vivo at 12 mg/kg [15]: 62%; Activity [17]: Toxic
CC1=C(O)C(=O)C=C2C1=CC=C1[C@@]2(C)CC[C@@]2(C)[C@@H]3C[C@](C)(C(=O)OCc4cccc(Cl)c4)CC[C@]3(C)CC[C@]12C	0.87 µM	3.25 µM	0.31 µM	0.42 µM	0.37 µM	–
CC1=C(O)C(=O)C=C2C1=CC=C1[C@@]2(C)CC[C@@]2(C)[C@@H]3C[C@](C)(C(=O)OCc4ccc(I)cc4)CC[C@]3(C)CC[C@]12C	1.95 µM	7.7 µM	0.81 µM	1.32 µM	0.86 µM	–
